Results published in patent US11919854B2, “P2RX7 modulators in therapy” (Centre national de la recherche scientifique, priority 2018, dated 2024).
Entries after “also recorded” stand apart in the source; their conditions may differ.

How the values were obtained:
[1] = Solubility (qualitative statement); assay type: physicochemical
B16F10 cells = test: Syngeneic tumor mice model, B16F10 subcutaneous; assay type: in vivo, C57BL/6 mice
Method: 5×10^5 B16F10 cells were injected sub cutaneously in the right flank of C57BL/6 mice. Mice received HEI2328 (n=8, ip, 2.3 mg/kg in 10% DMSO/PBS) daily or placebo (n=8, 10% DMSO/PBS). A. incidence of tumor appearance B. Tumor size (mm2) and C. tumor weight at sacrifice day (J12). *, p<0.05 (Mann-Whitney test).
5×10^5 LLC or 5×10^5 B16F10 cells were injected sub cutaneously in the right flank of C57BL6 mice. Mice received HEI3090 (ip, 2.5 mg/kg in 10% DMSO/PBS) daily or placebo (10% DMSO/PBS). A,C. incidence of tumor appearance B,D. Tumor size (mm2) and tumor weight at sacrifice day (J12). E. HEI-treated tumors are more immunogenic. Expression of CMH1 (H2K^b/D^b) and PD-L1 by LLC (black) and B16F10 (grey) tumors is shown in dot plots. Numbers highlighted the percentage of tumor cells positive for H2K^b/D^b and PD-L1. […] F. CD-45 positive infiltrates is increased in LLC and B16F10 tumors. *, p<0.05; **, p<0.01; ***, p<0.001 Mann-Whitney test.
5×10^5 LLC or 5×10^5 B16F10 cells were injected sub cutaneously in the right flank of C57BL6 mice. Mice received HEI3090 (ip, 2.5 mg/kg in 10% DMSO/PBS) daily or placebo (10% DMSO/PBS). A. The quantity of immunosuppressive cells is reduced. Dot plot of representative experiment. Numbers highlighted the percentage of M-MDSC and PMN-MDSC. […] B. The quantity of effector T cells ([…], NK, CD4+) is increased.
Therefore the inventors tested this compound on a classical tumor mice model. 5×10^5 B16F10 cells (in 200 μl PBS) were injected subcutaneously in the right flank of C57B16 mice that received a daily intraperitoneal injection of 2.3 mg/kg HEI2328 (in PBS/10% DMSO) or placebo (PBS/10% DMSO) for 12 days. […] However, this encouraging result was not statistically significant.
4.2. By killing tumoral cells, HEI3090 may represent a new anti-tumor treatment. To test this hypothesis, immunocompetent C57B16J mice were subcutaneously injected with 5×10^5 B16F10 or 5×10^5 LLC (Lewis Lung Cancer) cells and treated daily with HEI3090 (ip, 2.5 mg/kg in 10% DMSO/PBS) or placebo (10% DMSO/PBS). […] In both tumor mice models, tumors weight in the treated group was reduced by 10-fold in the B16F10 model (8 mg vs 81 mg) and by 4-folds in the LLC model (80 mg vs 295 mg). Of interest, tumors from the HEI3090 treated group are more immunogenic than tumors from the placebo group.

[2] = system: B16F10 melanoma cell line; test: Large pore opening (Topro3) in B16F10 melanoma cell line; assay type: cell-based
Method: Calcium channel activity (Fluo4AM probe) and large pore opening (Topro3 probe) were analysed by FACS. Unstimulated (NS) or cells treated with HEI2328 (50 μM) alone or with BzATP (500 μM) were analysed. (A) Representative dots plots. Numbers highlighted the percentage of positive cells.
A. Large pore opening. Dot plot of representative experiment. Numbers highlighted the percentage of positive cells. […] B. representative curve of XTT absorbance over the time. […] Mean±SEM are shown. ***, p<0.001; ****, p<0.0001 Mann-Whitney test.
4.1. […] To test this hypothesis, immunocompetent C57B6J (Envigo, Gannat France) mice were injected with the melanoma cell line B16-F10.
Of interest, potentiation of large pore opening correlated with increased-B16F10 cell death, as illustrated in FIG. 9. Cells treated during 1 h with BzATP and HEI3090 incorporated 3-fold more Topro3 than cells treated with BzATP only (FIG. 9A). Longer incubation increased cell death, since it was observed up to 80% of dead cells after 3 h treatment (FIG. 9B).

[3] = Stability in mouse liver microsomes; assay type: in vitro ADME; conditions: 1 μM; 0, 5, 10, 20, 30 and 40 min; mass spectrometry
Method: A. HEI-2328 and -3090 are stable molecules. Mouse liver microsomes from BD Gentest (ref 5345001) were incubated with HEI-2314, -2328, -2333 and -3090 at 1 μM for 0, 5, 10, 20, 30 and 40 min. The stability of the compounds was assayed by mass spectrometry.
Stability was studied in the mouse liver microsome system—and human, not shown—(FIG. 13A) and directly in vivo, for HEI3090 molecule (FIG. 13B). These experiments highlighted that HEI3090 is found at a concentration of maximum 2.5 μM in the plasma of mice injected with HEI3090 (ip, 1.5 mg/kg in 10% DMSO).

P2RX7 = test: Large pore opening in splenocytes from control or p2rx7 KO mice; assay type: cell-based, mouse; conditions: HEI3090 50 μM, BzATP 500 μM
Method: A. Splenocytes from control or p2rx7^exon2 KO mice were isolated and treated with HEI3090 (50 μM) in presence of absence of BzATP (500 μM). B. Large pore opening induced by increasing concentration of BzATP in presence or absence of HEI3090 in human P2RX7 expressing cells.
Indeed, with the same BzATP concentration, more cells are positive for Topro3 staining.

Structure (SMILES)	solubility [1]	tumor incidence (B16F10 cells; HEI2328 2.3 mg/kg ip daily, 12 days)	decrease of tumor growth (B16F10 cells; HEI2328 2.3 mg/kg ip daily, 12 days, not statistically significant)	increase of large pore opening (Topro3 positive cells) ([2]; HEI2328 50 μM added on BzATP (500 μM) treated cells)	toxic effect of compound alone ([2]; absence of BzATP, 50 μM)	stability in mouse liver microsomes [3]	immunosuppressive cells (M-MDSC) in tumor infiltrates (B16F10 cells; HEI3090 ip 2.5 mg/kg daily)	tumors weight (B16F10 cells; HEI3090 ip 2.5 mg/kg daily (placebo 81 mg))	reduction of tumors weight (B16F10 cells; HEI3090 ip 2.5 mg/kg daily, vs placebo)	Topro3 incorporation vs cells treated with BzATP only ([2]; 1 h with BzATP and HEI3090)	Topro3 incorporation / effect in splenocytes from P2rx7 KO mice (P2RX7)	large pore opening in presence of BzATP (P2RX7; splenocytes from control mice)
O=C(NCc1ccc(Cl)cc1Cl)[C@@H]1CCC(=O)N1C(=O)Nc1ccc(Cl)c(Cl)c1 [HEI2328, (S)—N^2-(2,4-Dichlorobenzyl)-N^1-(3,4-dichlorophenyl)-5-oxopyrrolidine-1,2-dicarboxamide]	poorly soluble	delayed	20%	more than 6 fold	no toxic effect	stable						
O=C(NCc1ccc(Cl)cc1Cl)[C@@H]1CCC(=O)N1C(=O)Nc1ccc(Cl)nc1 [HEI3090, (S)—N^1-(6-Chloropyridin-3-yl)-N^2-(2,4-dichlorobenzyl)-5-oxopyrrolidine-1,2-dicarboxamide]	more soluble					stable	less M-MDSC	8 mg	10 fold	3 fold	Topro3 incorporation is lost; also recorded: absence of effect	potentializes large pore opening in presence of BzATP
